The record followed here is US20060264419A1 (priority 2003, published 2006).

Structures are written as SMILES. Like-named read-outs stand apart in the source and are kept apart here.

As usually defined, the IC50 is the concentration that gives 50% inhibition.

For the assay, the target named is 5-HT2A receptors (Rattus norvegicus, UniProt P14842). Description: in-vitro affinity to 5-HT2A receptors, displacement of [3H]ketanserine (Example A1). It is filed as binding. From the text: The 5-HT2A receptors are exposed both to [^3H]ketanserine (a substance which is known for its affinity to the receptor) and also to the test compound. The decrease in the affinity of [^3H]ketanserine to the receptor is an indication of the affinity of the test substance to the 5-HT2A receptor.
Background: Displacement assays read how much labelled ligand stays bound in the presence of the test substance.

Setting [1] is: target not given, description names affinity to 5-HT2A receptors, read-out: IC50.

Chain of 5-HT2A receptors (P14842 whole entry): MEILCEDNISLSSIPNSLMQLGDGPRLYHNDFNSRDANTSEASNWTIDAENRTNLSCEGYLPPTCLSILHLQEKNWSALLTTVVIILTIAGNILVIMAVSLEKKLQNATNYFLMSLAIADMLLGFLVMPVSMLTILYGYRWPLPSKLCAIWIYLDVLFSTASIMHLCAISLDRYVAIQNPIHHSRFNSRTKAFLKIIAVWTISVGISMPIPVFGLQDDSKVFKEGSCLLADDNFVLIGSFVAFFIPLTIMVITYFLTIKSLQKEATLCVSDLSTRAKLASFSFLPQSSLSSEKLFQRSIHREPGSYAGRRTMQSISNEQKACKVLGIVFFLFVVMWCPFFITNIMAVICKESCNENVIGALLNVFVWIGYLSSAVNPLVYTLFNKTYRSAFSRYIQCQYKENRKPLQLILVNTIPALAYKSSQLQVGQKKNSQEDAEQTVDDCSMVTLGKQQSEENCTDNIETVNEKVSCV

Regarding `c1ccc(-c2ccc(-n3ncc(CNCc4ccccn4)c3-c3ccccc3)cc2)cc1` [(172), (1-Biphenyl-4-yl-5-phenyl-1H-pyrazol-4-ylmethyl)pyridin-2-ylmethylamine], the IC50 under setting [1] came to 23 nM.
As to `CCc1ccc(-c2ccc(-n3ncc(CN4CCN(C)CC4)c3-c3ccccc3F)cc2)cc1` [Example 956, 1-[1-(4′-Ethylbiphenyl-4-yl)-5-(2-fluorophenyl)-1H-pyrazol-4-ylmethyl]-4-methylpiperazine], under “read-out: HT2A IC50”, the IC50 is 57 nM.
As to `OCCc1cnn(-c2ccc(-c3ccccc3)cc2)c1-c1ccccc1F` [(173), 2-[1-Biphenyl-4-yl-5-(2-fluorophenyl)-1H-pyrazol-4-yl]-ethanol], under setting [1], the IC50 came out at 470 nM.
For the compound `CC(C)(C)OC(=O)N1CCC(NCc2cnn(-c3ccc(-c4ccccc4)cc3)c2-c2ccccc2F)C1` (centres unmarked) [Example 1056, tert-Butyl 3-{[1-biphenyl-4-yl-5-(2-fluoro-phenyl)-1H-pyrazol-4-ylmethyl]amino}pyrrolidine-1-carboxylate], the IC50 (read-out: HT2A IC50) worked out at 460 nM.
In the case of `CN(C)C1CCN(Cc2cnn(-c3ccc(-c4ccccc4)cc3)c2-c2ccccc2F)C1` (centres unmarked) [(167), {1-[1-Biphenyl-4-yl-5-(2-fluorophenyl)-1H-pyrazol-4-ylmethyl]-pyrrolidin-3-yl}dimethylamine], the IC50 under setting [1] worked out at 230 nM.
As for `COCCN(C)Cc1cnn(-c2ccc(-c3ccccc3)nc2)c1-c1ccccc1F` [(134), [5-(2-Fluorophenyl)-1-(6-phenylpyridin-3-yl)-1H-pyrazol-4-ylmethyl]-(2-methoxyethyl)methylamine], the IC50 under setting [1] was found to be 300 nM.
As to `c1ccc(-c2ccc(-n3ncc(CN4CCNCC4)c3-c3ccccn3)cc2)cc1` [Example 1009, 1-(1-Biphenyl-4-yl-5-pyridin-2-yl-1H-pyrazol-4-ylmethyl)piperazine], the IC50 (read-out: HT2A IC50) stood at 200 nM.
As to `Nc1ncc(NCc2cnn(-c3ccc(-c4ccc(F)cc4)nc3)c2-c2ccccc2F)cn1` [(197)], the IC50 under setting [1] was 1300 nM.
Turning to `CC1CCN(Cc2cnn(-c3ccc(-c4ccccc4)cc3)c2-c2ccccc2F)CC1` [Example 986, 1-[1-Biphenyl-4-yl-5-(2-fluorophenyl)-1H-pyrazol-4-ylmethyl]-4-methylpiperidine], the IC50 (read-out: HT2A IC50) stood at 130 nM.
With `COc1ccccc1-c1c(CN2CCN(C)CC2)cnn1-c1ccc(-c2ccccc2F)cc1` [(104), 1-[1-(2′-Fluorobiphenyl-4-yl)-5-(2-methoxyphenyl)-1H-pyrazol-4-ylmethyl]-4-methylpiperazine], under setting [1], the IC50 came to 52 nM.
With `CCN(CC)CC1CCCCN1Cc1cnn(-c2ccc(-c3ccccc3)cc2)c1-c1ccccc1F` (centres unmarked) [Example 1028, {1-[1-Biphenyl-4-yl-5-(2-fluorophenyl)-1H-pyrazol-4-ylmethyl]piperidin-2-ylmethyl}-diethylamine], the IC50 (read-out: HT2A IC50) came out at 270 nM.
As to `Fc1ccccc1-c1c(CNC2CCNCC2)cnn1-c1ccc(-c2ccccc2)cc1` [(74), [1-Biphenyl-4-yl-5-(2-fluorophenyl)-1H-pyrazol-4-ylmethyl]-piperidin-4-ylamine], under setting [1], the IC50 was found to be 470 nM.
On the same count and under the same terms, under `OCc1cnn(-c2ccc(-c3ccc(F)cc3)nc2)c1-c1ccccc1F` [(119), {5-(2-Fluorophenyl)-1-[6-(4-fluorophenyl)pyridin-3-yl]-1H-pyrazol-4-yl}methanol] stands 300 nM; under `Fc1ccccc1-c1c(CN2CC=CC2)cnn1-c1ccc(-c2ccccc2)cc1` [(30), 1-Biphenyl-4-yl-4-(2,5-dihydropyrrol-1-ylmethyl)-5-(2-fluorophenyl)-1H-pyrazole], 36 nM; under `O=C1NOCC1NCc1cnn(-c2ccc(-c3ccccc3)cc2)c1-c1ccccc1F` (centres unmarked) [(131), 4-{[1-Biphenyl-4-yl-5-(2-fluorophenyl)-1H-pyrazol-4-ylmethyl]-amino}isoxazolidin-3-one], 6000 nM.
On the same count and under the same terms, under `CN(C)Cc1cnn(-c2ccc(-c3ccccc3)cc2)c1-c1ccccc1F` [(34), [1-Biphenyl-4-yl-5-(2-fluorophenyl)-1H-pyrazol-4-ylmethyl]-dimethylamine] stands 21 nM; under `CN1CCN(NCc2cnn(-c3ccc(-c4ccccc4)cc3)c2-c2ccccc2F)CC1` [(40), [1-Biphenyl-4-yl-5-(2-fluorophenyl)-1H-pyrazol-4-ylmethyl]-(4-methylpiperazin-1-yl)amine], 14 nM; under `Nc1ccncc1NCc1cnn(-c2ccc(-c3ccccc3)cc2)c1-c1ccccc1F` [(177), N^3-[1-Biphenyl-4-yl-5-(2-fluorophenyl)-1H-pyrazol-4-ylmethyl]-pyridine-3,4-diamine], 180 nM.
On the same count and under the same terms, under `CCN(CC)Cc1cnn(-c2ccc(-c3ccccc3)cc2)c1-c1ccccc1F` [(33), [1-Biphenyl-4-yl-5-(2-fluorophenyl)-1H-pyrazol-4-ylmethyl]-diethylamine] stands 55 nM.
For `Cc1nn(-c2ccccc2)c(C)c1CN1CCN(C(=O)C(CCC(=O)O)N2C(=O)c3ccccc3C2=O)CC1` (centres unmarked) [Example 1015], where the note is “read-out: HT2A IC50”, the concentration for half-maximal inhibition (IC50) was found to be 220 nM.
For the compound `CCOC(=O)N1CCC(NCc2cnn(-c3ccc(-c4ccccc4)cc3)c2-c2ccccc2F)CC1` [(72), Ethyl 4-{[1-biphenyl-4-yl-5-(2-fluorophenyl)-1H-pyrazol-4-ylmethyl]amino}piperidine-1-carboxylate], under setting [1], the IC50 stood at 580 nM.
As to `Fc1ccccc1-c1c(CN2CCNCC2)cnn1-c1ccc(C(F)(F)F)cc1` [(86), 1-[5-(2-Fluorophenyl)-1-(4-trifluoromethylphenyl)-1H-pyrazol-4-ylmethyl]piperazine], the 50% inhibitory concentration (IC50) under setting [1] worked out at 43 nM.
The same measure, in the same setting: then `Fc1ccccc1-c1c(CN2CCN3CCc4ccccc4C3C2)cnn1-c1ccc(-c2ccccc2)cc1` (centres unmarked) [(27), 2-[1-Biphenyl-4-yl-5-(2-fluorophenyl)-1H-pyrazol-4-ylmethyl]-1,3,4,6,7,11b-hexahydro-2H-pyrazino[2,1-a]-isoquinoline], with 280 nM.
Take `Fc1ccccc1-c1c(CNC2CCN(Cc3ccccc3)C2)cnn1-c1ccc(-c2ccccc2)cc1` (centres unmarked) [Example 1036, (1-Benzylpyrrolidin-3-yl)-[1-biphenyl-4-yl-5-(2-fluorophenyl)-1H-pyrazol-4-ylmethyl]amine]: the IC50 (read-out: HT2A IC50) was 310 nM.
The same measure, in the same setting: under `Fc1ccc(-c2ccc(-n3ncc(CN(Cc4cnn(-c5ccc(-c6ccc(F)cc6)cc5)c4-c4ccco4)C4CC4)c3-c3ccco3)cc2)cc1` [Example 982, Cyclopropylbis-[1-(4′-fluorobiphenyl-4-yl)-5-furan-2-yl-1H-pyrazol-4-ylmethyl]amine] stands 110 nM.
For `Fc1ccc(F)c(-c2ccc(-n3ncc(CNc4cc[nH]n4)c3-c3ccccc3F)cc2)c1` [(140), [1-(2′,5′-Difluorobiphenyl-4-yl)-5-(2-fluorophenyl)-1H-pyrazol-4-ylmethyl]-(1H-pyrazol-3-yl)amine], the IC50 under setting [1] was 180 nM.
For the compound `OCc1cnn(-c2ccc(-c3ccc(F)cc3)cc2)c1-c1ccccc1Cl` [Example 1048, [5-(2-Chlorophenyl)-1-(4′-fluoro-biphenyl-4-yl)-1H-pyrazol-4-yl]methanol], the half-inhibitory concentration (IC50) (read-out: HT2A IC50) came to 380 nM.
As for `CN(C)CCN(C)Cc1cnn(-c2ccc(-c3ccccc3)nc2)c1-c1ccccc1F` [(127), N-[5-(2-Fluorophenyl)-1-(6-phenylpyridin-3-yl)-1H-pyrazol-4-ylmethyl]-N,N′,N′-trimethylethane-1,2-diamine], the IC50 under setting [1] came out at 440 nM.
Same read-out and setting: then `Fc1ccc(-c2ccc(-n3ncc(CNc4cccnc4)c3-c3ccccc3F)cn2)cc1` [(144), {5-(2-Fluorophenyl)-1-[6-(4-fluorophenyl)pyridin-3-yl]-1H-pyrazol-4-ylmethyl}pyridin-3-ylamine], with 890 nM.
